No end group written: not given here.
Key:
[1] = system: children diagnosed as having autism; assay: Experiment 1: CARS (Childhood Autism Rating Scale) test pre/post secretin; type: in vivo, human (children); conditions: 16 autistic children
Experimental: Upon determining that a given child was likely to benefit from secretin administration based on the results of the fecal chymotrypsin test, the child was administered a CARS (Childhood Autism Rating Scale) test prior to being scheduled for secretin infusion.
For each of the 16 autistic children tested, a preferred secretin infusion process according to the present invention was performed involving the administering of 1 U/kg of body weight of Secretin-Ferring for a period of nine months at intervals of approximately 6 weeks. In addition, another CARS test was administered to each of the 16 autistic children 3 weeks post secretin administration to determine if their autism had changed post infusion.
A preferred secretin infusion process includes the initial step of prepping an arm of the candidate child with an IV injection of saline. A test dose of 1 U of Secretin-Ferring is then administered to the child. Approximately one minute after infusion, the child is examined for signs of allergic reaction including rash, increased heart rate, and increase of blood pressure. […] Subsequently, each child receives a 1U/kg of body weight infusion of Secretin-Ferring approximately every 6 weeks for 9 months. It is to be understood that any commercially available form of secretin may be used. […]

[2] = system: children diagnosed as having autism; assay: Experiment 1: Fecal Chymotrypsin Test after secretin infusion; type: in vivo, human (children); conditions: each of 16 autistic children; approximately one week after first secretin infusion, 1 U/kg IV
Experimental: (§1) In this experiment, 16 children diagnosed as having autism were administered the following Fecal Chymotrypsin Test in accordance with an embodiment of the invention. First, approximately 2 grams of stool were collected from each child and placed in a sterile container (although it is to be understood that any quantity of stool may be collected, as 2 grams of stool is not a required amount). Each stool sample was then analyzed using, e.g., an enzymatic photospectrometry analysis as is known by those skilled in the art, to determine the level of fecal chymotrypsin in the stool. Although the enzymatic photospectrophotometry process is preferred, any suitable conventional method may be used for measuring the fecal chymotrypsin levels. The measured chymotrypsin levels of the 16 autistic children are illustrated in FIG. 13.
After determining the chymotrypsin levels of the stools, each of these levels were compared with threshold chymotrypsin levels to determine if the child was likely to benefit from secretin administration. […]
The results of Experiment 1 are illustrated in FIGS. 1-14. For instance, approximately one week after the first secretin infusion, the fecal chymotrypsin level of each of the 16 autistic children was measured again. […]

[3] = system: children diagnosed with Autism; conditions: secretin given as diagnostic procedure during upper gastrointestinal endoscopy (Horvath et al. 1998); cited from earlier work
[4] = system: autistic children with abnormal fecal chymotrypsin levels; assay: Experiment 2: fecal chymotrypsin levels during 6 months of secretin administration; type: in vivo, human (children); conditions: of 37 children, 6 months post-secretin administration
Experimental: as §1
After determining the chymotrypsin levels of the stools, each of these levels were compared with threshold chymotrypsin levels to determine if the child was likely to benefit from secretin administration. By way of example, with the fecal chymotrypsin tests of the stool samples being performed at 30° C. normal levels of chymotrypsin are deemed to lie above 8.4 U/gram, whereas pathologically abnormal levels are deemed to lie below 4.2 U/gram. In addition, chymotrypsin levels between 8.4 U/gram and 4.2 U/gram are considered equivocal, and further testing of the individual's fecal chymotrypsin levels over a period of time should be performed.
A preferred secretin infusion process includes the initial step of prepping an arm of the candidate child with an IV injection of saline. A test dose of 1 U of Secretin-Ferring is then administered to the child. […]
In this experiment, 37 autistic children with abnormal fecal chymotrypsin levels were administered secretin over the course of 6 months using the secretin infusion process described above. Their fecal chymotrypsin (FC) levels were measured weekly using the fecal chymotrypsin test described above.

With “secretin (HSDGTFTSELSRLRDSARLQRLLQGLV; ends and bridges not checked; UniProt P63298 33-59, looked up) [gastrointestinal peptide hormone]” the “CARS component scores (all except fear)” value ([1]; 3 weeks post infusion) was “improvement”, the “CARS scores, overall change” value ([1]; approximately 3 weeks after first secretin administration vs pre-secretin) was “overall decrease” and the “fecal chymotrypsin level post-secretin administration compared with pre-secretin” value [2] was “increased”. The “symptoms associated with Autism after secretin administration” value [3] was “ameliorating the symptoms”, the “# Autistic Children w/Equivocal FC levels” value ([4]; pre-secretin 0) was 2 and the “# Autistic Children w/normal FC levels” value ([4]; pre-secretin 0) was 34. The “# Autistic Children w/Abnormal FC levels” value ([4]; pre-secretin 37) was 1.

From patent US6632429B1, “Methods for treating pervasive development disorders” (priority 1999, dated 2003)
